GI50 and TGI data for 14 compounds are collected here from PubChem BioAssay (NCI).

Each structure is given as a SMILES string.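 A five-concentration, 48-hour dose response in 96-well plates underlies each endpoint, interpolated linearly between surrounding concentrations. GI50 marks 50% less growth. TGI: total growth inhibition.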

Some test systems named below: DU-145 prostate; UO-31 renal; K-562 leukemia; UACC-257 melanoma; A549 NSCLC; U251 CNS; BT-549 breast; UACC-62 melanoma; SN12C renal; EKVX NSCLC.
Common to all, as to experiment: NCI-60 cell line screen, 48 h

Take `O=C(Nc1ccccc1O)c1ccc(Oc2cccc(C(=O)Nc3ccccc3O)c2)cc1`: the GI50 with DU-145 prostate is 3.37 µM; in the test on UO-31 renal, 1.36 µM; with K-562 leukemia it was 0.819 µM; in the test on UACC-257 melanoma, 1.69 µM; in the test with A549 NSCLC, 2.91 µM; in the test on U251 CNS, 2.13 µM. Moreover, the GI50 was 2.53 µM in the test on BT-549 breast, 1.22 µM in the test on UACC-62 melanoma and 2.84 µM in the test on SN12C renal. Also, the TGI with DU-145 prostate is 11.9 µM; in the test on UO-31 renal, 6.39 µM; with K-562 leukemia it was over 100 µM; in the test on UACC-257 melanoma, 8.21 µM; in the test on A549 NSCLC, 16.6 µM; in the test with U251 CNS, 8.16 µM. The TGI in the test with BT-549 breast was 27 µM; in the test with UACC-62 melanoma, 5.1 µM; with SN12C renal it was 17.9 µM.
For the compound `Cc1c(C)[n+](=O)c(C)c(C)n1[O-]`, the GI50 with DU-145 prostate, in the test with UO-31 renal, in the test on K-562 leukemia, with UACC-257 melanoma, with A549 NSCLC and in the test with EKVX NSCLC was over 100 µM throughout. Further, the GI50 in the test with U251 CNS, in the test with UACC-62 melanoma and in the test with SN12C renal was over 100 µM each time. In addition, the TGI in the test with DU-145 prostate, with UO-31 renal, in the test with K-562 leukemia, in the test with UACC-257 melanoma, in the test with A549 NSCLC and in the test with EKVX NSCLC was over 100 µM in each case. For the same compound, the TGI with U251 CNS, with UACC-62 melanoma and with SN12C renal was over 100 µM in each case.
`CCCCCCCCCCCCSC(=N)N`: the GI50 in the test on DU-145 prostate is 8.98 µM; in the test with UO-31 renal it was 5.71 µM; with K-562 leukemia it was 2.01 µM; in the test on UACC-257 melanoma, 13.8 µM; in the test on A549 NSCLC, 12.9 µM; in the test with U251 CNS, 2.64 µM. The GI50 is 18.9 µM in the test with BT-549 breast, 15.7 µM in the test with UACC-62 melanoma and 8.21 µM in the test with SN12C renal. In addition, the TGI in the test on DU-145 prostate came out at 23 µM; in the test on UO-31 renal, 19.8 µM; in the test with K-562 leukemia, 4.64 µM; in the test with UACC-257 melanoma, 27.3 µM; in the test with A549 NSCLC, 29.5 µM; in the test on U251 CNS, 8.74 µM. Besides, the TGI in the test on BT-549 breast was 47.1 µM; in the test with UACC-62 melanoma, 31 µM; in the test on SN12C renal it was 21.4 µM.
Consider `COc1ccc(-c2ccc(-c3ccc(-c4ccc(C(=N)N)cc4)s3)s2)cc1OC`, for which the GI50 in the test with DU-145 prostate is 0.478 µM; in the test with UO-31 renal, 14.4 µM; in the test on K-562 leukemia, 1.9 µM; with UACC-257 melanoma, 22 µM; in the test on BT-549 breast, 17.3 µM; with UACC-62 melanoma, 18.4 µM. Moreover, in the test with SN12C renal, the GI50 was 3.6 µM. Besides, the TGI is 2.23 µM with DU-145 prostate; 32.4 µM in the test with UO-31 renal; 5.47 µM with K-562 leukemia; 54.3 µM with UACC-257 melanoma; 46.8 µM with BT-549 breast; 48 µM in the test on UACC-62 melanoma. Further, the TGI with SN12C renal came out at 21.8 µM.
For `O=c1cc(-c2ccccc2)[nH]n1-c1nc2ccccc2[nH]1`, the GI50 with DU-145 prostate was 9.97 µM; in the test on UO-31 renal, 5.68 µM; with K-562 leukemia, 3.94 µM; with UACC-257 melanoma it was 6.18 µM; with A549 NSCLC, 4.46 µM; with BT-549 breast, 7.03 µM. Moreover, the GI50 with UACC-62 melanoma was 3.1 µM; in the test with SN12C renal, 6.84 µM. In addition, the TGI in the test with DU-145 prostate is over 100 µM; in the test with UO-31 renal, 67.6 µM; in the test with K-562 leukemia it was over 100 µM; with UACC-257 melanoma, over 100 µM; with A549 NSCLC, over 100 µM; in the test with BT-549 breast, over 100 µM. The figures for the TGI in the test on UACC-62 melanoma and with SN12C renal were 13.8 µM and over 100 µM, respectively.
As for `N#CC1=C(N)NC(=O)NC12Nc1ccccc1S2` (centres undefined), the GI50 is 12.5 µM with DU-145 prostate; 36.2 µM in the test on UO-31 renal; 31.8 µM with K-562 leukemia; 1.42 µM in the test with UACC-257 melanoma; 4.27 µM with A549 NSCLC; 21.4 µM in the test on U251 CNS. Further, the GI50 in the test on BT-549 breast is 24.2 µM; in the test with UACC-62 melanoma, 14.7 µM; with SN12C renal, 17.6 µM. Also, the TGI is 35.3 µM with DU-145 prostate; over 100 µM in the test on UO-31 renal; over 93 µM in the test with K-562 leukemia; over 40.4 µM in the test on A549 NSCLC; over 55 µM in the test with U251 CNS; 93.6 µM in the test with BT-549 breast. Moreover, the figures for the TGI in the test on UACC-62 melanoma and in the test on SN12C renal were 36.4 µM and 50.8 µM, respectively.
For `COC(=O)C1(F)C(=O)NC(=O)NC1O` (centres undefined), the TGI with DU-145 prostate, in the test with UO-31 renal, in the test with K-562 leukemia, with UACC-257 melanoma, in the test on A549 NSCLC and in the test on EKVX NSCLC was over 100 µM in each case. Moreover, the TGI in the test with U251 CNS, with UACC-62 melanoma and with SN12C renal was over 100 µM throughout.
On to `COc1cc(-c2nc3sc4c(c3c(=O)[nH]2)CCCCCC4)cc(OC)c1OC`, for which the GI50 with DU-145 prostate is 1.78 µM; in the test with UO-31 renal, 2.07 µM; in the test with K-562 leukemia it was 0.263 µM; in the test with UACC-257 melanoma it was 3 µM; in the test on A549 NSCLC it was 1.95 µM; in the test on BT-549 breast, 1.26 µM. In addition, the results for the GI50 in the test with UACC-62 melanoma and with SN12C renal were 0.743 µM and 2.14 µM, respectively. In addition, the TGI is over 33.2 µM with DU-145 prostate; over 33.2 µM in the test with UO-31 renal; over 33.2 µM in the test on K-562 leukemia; over 33.2 µM in the test on UACC-257 melanoma; over 33.2 µM with A549 NSCLC; 19 µM with BT-549 breast. Further, the TGI was 30.3 µM with UACC-62 melanoma and over 33.2 µM with SN12C renal.
Regarding `COc1ccc(/C=C\c2cc(OC)c(OC)c(OC)c2)cc1OC(=O)CCC(=O)O`, the GI50 with UO-31 renal was under 0.0001 µM; in the test with UACC-257 melanoma it was under 0.0001 µM; in the test on A549 NSCLC, 0.157 µM; in the test on EKVX NSCLC, 51.5 µM. Besides, the TGI in the test with UO-31 renal, with A549 NSCLC, in the test on EKVX NSCLC, in the test on BT-549 breast and with SN12C renal was over 100 µM throughout.
With `COc1ccc2c(c1)C(c1ccccc1Cl)=Nc1c(n[nH]c1C)N2`, the GI50 in the test on DU-145 prostate is over 25 µM; with UO-31 renal, 13.9 µM; in the test with K-562 leukemia it was over 25 µM; in the test on UACC-257 melanoma, over 25 µM; with A549 NSCLC it was 12.5 µM; with U251 CNS, 5.74 µM. In addition, the GI50 with BT-549 breast is over 21.2 µM; in the test on UACC-62 melanoma it was 25 µM; in the test with SN12C renal it was over 20.3 µM. Also, the TGI in the test on DU-145 prostate, in the test on UO-31 renal, with K-562 leukemia, with UACC-257 melanoma, in the test with A549 NSCLC and in the test on U251 CNS was over 25 µM each time. Further, the TGI in the test with BT-549 breast, in the test on UACC-62 melanoma and in the test with SN12C renal was over 25 µM throughout.
With `COc1ccc2c(c1)C(=O)/C(=C/c1ncc([N+](=O)[O-])n1C)O2`, the GI50 with DU-145 prostate was 0.868 µM; in the test on UO-31 renal, 0.494 µM; with K-562 leukemia it was 0.245 µM; with UACC-257 melanoma, 1.41 µM; in the test on A549 NSCLC, 2.18 µM; with U251 CNS, 0.772 µM. In addition, the values for the GI50 in the test on BT-549 breast, in the test with UACC-62 melanoma and in the test on SN12C renal were 0.618 µM, 1.29 µM and 0.292 µM, respectively. Moreover, the TGI in the test on DU-145 prostate amounted to 2.98 µM; in the test on UO-31 renal it was 2.53 µM; in the test on UACC-257 melanoma it was 6.82 µM; with A549 NSCLC, 6.28 µM; with U251 CNS, 2.84 µM; in the test on BT-549 breast it was 1.99 µM. Moreover, the values for the TGI with UACC-62 melanoma and in the test with SN12C renal were 3.12 µM and 1.3 µM, respectively.
As for `Cc1cc(=O)oc2cc(OCc3c(F)cccc3Cl)ccc12`, the TGI was over 100 µM in the test on DU-145 prostate; over 100 µM in the test with UO-31 renal; over 100 µM in the test with UACC-257 melanoma; over 100 µM with A549 NSCLC; 30.1 µM in the test with U251 CNS; over 100 µM in the test on BT-549 breast. In addition, the TGI in the test on UACC-62 melanoma is 35 µM; in the test with SN12C renal, over 100 µM.
Consider `O=C(N/N=C/c1ccccc1O)C(=O)Nc1ccc(F)cc1`, for which the GI50 in the test on DU-145 prostate is 7.14 µM; in the test on UO-31 renal, 2.18 µM; in the test with K-562 leukemia, 5.02 µM; in the test on UACC-257 melanoma it was 2.85 µM; in the test with A549 NSCLC, 3.67 µM; in the test with U251 CNS, 2.75 µM. Besides, the GI50 in the test on BT-549 breast was 18.1 µM; with UACC-62 melanoma, 3.32 µM; with SN12C renal it was 6.46 µM. Further, the TGI is over 100 µM in the test on DU-145 prostate; 54.1 µM in the test on UO-31 renal; over 100 µM in the test on K-562 leukemia; 15 µM with UACC-257 melanoma; over 100 µM in the test with A549 NSCLC; over 100 µM in the test on U251 CNS. Besides, the TGI in the test with BT-549 breast is over 100 µM; with UACC-62 melanoma it was 23.1 µM; with SN12C renal, over 100 µM.
In the case of `Cc1ccc(-c2cc(C3=CC(=O)C=CC3=O)n(-c3ccc(S(N)(=O)=O)cc3)n2)cc1`, the GI50 in the test with UO-31 renal was over 100 µM; in the test with K-562 leukemia it was 34.4 µM; in the test with UACC-257 melanoma, over 100 µM; with A549 NSCLC, over 100 µM; with EKVX NSCLC, 47.8 µM; in the test with U251 CNS, 42.4 µM. In addition, the values for the GI50 in the test on BT-549 breast, with UACC-62 melanoma and in the test on SN12C renal were 64.1 µM, 39.5 µM and 58.7 µM, respectively. Besides, the TGI in the test with UO-31 renal, in the test with K-562 leukemia, with UACC-257 melanoma, in the test on A549 NSCLC, in the test on EKVX NSCLC and with U251 CNS was over 100 µM each time. Moreover, the TGI in the test with BT-549 breast, in the test with UACC-62 melanoma and in the test on SN12C renal was over 100 µM in each case.
